In one assay the test system is DOHH2 cells. Kind of assay: Cell proliferation inhibition in vitro, DOHH2 cells by CTG assay. In kind it is cell-based. Particulars: Homo sapiens, DOHH-2, 72 hours, read-out: Inhibitions of cell activities IC50 (nM) DOHH2. The protocol:
(§1) Test Example 2: Determination of the Inhibition of Cell Proliferation Inhibitory Activity in
(§2) vitro of compounds using different cell lines
(§3) 2: Preparation of the Compounds:
(§4) The compounds to be tested were diluted with DMSO to prepare a mother liquor at a final concentration of 10 mM for later use.
3.2 Test of DOHH2 Cells by CTG Assay
(§5) Logarithmic growth phase cells were collected, counted and resuspended in complete medium. The cell concentration was adjusted to a suitable concentration (determined according to the cell density optimization test results), and seeded to 96-well plate and 100 μl of the cell suspension was added to each well. The cells were incubated in an incubator at 37° C., 100% relative humidity and 5% C02 for 24 hours.
The compounds to be tested were diluted with the medium to the set corresponding action concentration, and the cells were added at 10 µl/well. The cells were incubated in an incubator set at 37° C., 100% relative humidity and 5% C02 for 72 hours.
The medium was aspirated and discarded, and 30 μl of test reagent was added. The plate was gentle shaken away from the light to lyse the cells.
(§6) As: OA of the sample (cell+test reagent+test compound)
(§7) Ac: OA of the negative control (cell+test reagent+DMSO)
(§8) Ab: OA of the positive control (medium+test reagent+DMSO)
(§9) IC50 curve fitting was performed using the software Graphpad Prism 5 or XLfit and IC50 values were calculated.

In a further assay the target is BTK kinase (Homo sapiens (Human), UniProt Q06187). Kind of assay: In vitro assay for the inhibition of BTK kinase activity (Mobility-Shift Assay). The format is biochemical. The source says:
Mobility-Shift Assay, which is microfluidic chip technology, applies the basic concept of capillary electrophoresis to microfluidic environments. The substrate used for the experiment is a polypeptide with a fluorescent label. Under the action of enzyme in the reaction system, the substrate is transformed into a product, and the charge the substrate carries also changes accordingly. The use of the charge difference between the substrate and the product involved in Mobility-Shift Assay achieves the separating of the two, and they are tested respectively. The test results are expressed by conversion rates.
(3) 100% DMSO was added to the positive control well and the negative control well, respectively;

The next assay relates to TMD8 cells. Kind of assay: Cell proliferation inhibition in vitro, TMD8 cells by CCK-8 method. The format is cell-based. Particulars: Homo sapiens, 72 hours, read-out: Inhibitions of cell activities IC50 (nM) TMD8. The protocol: as §1, §2, §3, §4
(§10) 3.1. Test of TMD8 and OCI-ly10 Cells by CCK-8 Method
as §5
(§11) The compounds to be tested were diluted with the medium to the set corresponding action concentration, and the cells were added at 25 µl/well. The cells were incubated in an incubator at 37° C., 100% relative humidity and 5% C02 for 72 hours.
(§12) The medium was aspirated and discarded, and a complete medium containing 10% of the test reagent was added and the obtained system was incubated in a 37° C. incubator for 1 hour-4 hours.
as §6, §7, §8, §9
On the technique in general: Formazan colour is commonly taken as a measure of viable cells.

For a further assay, the system named is OCI-LY10 cells. Kind of assay: Cell proliferation inhibition in vitro, OCI-ly10 cells by CCK-8 method. The format is cell-based. The note with it: Homo sapiens, 72 hours, read-out: Inhibitions of cell activities IC50 (nM) OCI-LY10. How it is done: as §1, §2, §3, §4, §10, §5, §11, §12, §6, §7, §8, §9

Sequence of BTK kinase (Q06187 whole entry): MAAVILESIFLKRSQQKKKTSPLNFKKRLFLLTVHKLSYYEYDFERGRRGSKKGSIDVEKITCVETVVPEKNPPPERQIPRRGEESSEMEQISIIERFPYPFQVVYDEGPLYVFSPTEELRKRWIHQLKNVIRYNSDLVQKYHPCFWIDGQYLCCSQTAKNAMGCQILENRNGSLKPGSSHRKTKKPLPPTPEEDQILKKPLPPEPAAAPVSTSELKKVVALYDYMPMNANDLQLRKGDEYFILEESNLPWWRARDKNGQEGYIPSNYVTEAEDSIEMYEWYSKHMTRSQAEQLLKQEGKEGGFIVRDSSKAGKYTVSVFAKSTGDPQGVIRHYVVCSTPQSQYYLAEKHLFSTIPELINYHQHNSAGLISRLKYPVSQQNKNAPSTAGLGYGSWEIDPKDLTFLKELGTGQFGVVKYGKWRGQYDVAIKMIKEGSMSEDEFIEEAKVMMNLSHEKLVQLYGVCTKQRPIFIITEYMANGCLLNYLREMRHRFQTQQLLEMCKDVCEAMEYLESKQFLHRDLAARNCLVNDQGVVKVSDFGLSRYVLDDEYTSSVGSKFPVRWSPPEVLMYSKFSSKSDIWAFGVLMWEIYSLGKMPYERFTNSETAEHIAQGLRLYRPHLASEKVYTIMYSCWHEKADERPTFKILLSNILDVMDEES

As for `CC#CC(=O)N1CC2(CC2)C[C@H]1c1nc(-c2ccc(C(=O)Nc3ccccn3)cc2)c2c(N)nccn12` [Example 1, (S)-4-(8-amino-3-(5-(but-2-ynoyl)-5-azaspiro[2.4]heptan-6-yl)imidazo[1,5-a]pyrazin-1-yl)-N-(pyridin-2-yl)benzamide], the 50% inhibitory concentration (IC50) (as a rule, the concentration that inhibits the measured activity by half) in the assay on DOHH2 cells is more than 1000 nM; on BTK kinase, 83 nM.
For the compound `C=CC(=O)N1CC2(CC2)C[C@H]1c1nc(-c2ccc(C(=O)Nc3ccccn3)cc2)c2c(N)nccn12` [Example 2, (S)-4-(3-(5-acryloyl-5-azaspiro[2.4]heptan-6-yl)-8-aminoimidazo[1,5-a]pyrazin-1-yl)-N-(pyridin-2-yl)benzamide], the IC50 turned out to be 917 nM in the assay on DOHH2 cells and 24 nM at BTK kinase.
In the case of `CC#CC(=O)N1CC2CCCC2C1c1nc(-c2ccc(C(=O)Nc3ccccn3)cc2)c2c(N)nccn12` (stereo not shown) [Example 4], the half-inhibitory concentration (IC50) with TMD8 cells worked out at 2.1 nM; in the assay with DOHH2 cells it was 673 nM; with OCI-LY10 cells, 3.5 nM; on BTK kinase, 4.5 nM.
`CC#CC(=O)N1C[C@H]2[C@@H]([C@H]1c1nc(-c3ccc(C(=O)Nc4ccccn4)cc3)c3c(N)nccn13)C2(C)C` [Example 6]: the concentration for half-maximal inhibition (IC50) with TMD8 cells was 5.4 nM; in the assay with DOHH2 cells it was more than 1000 nM; with OCI-LY10 cells, 0.21 nM; at BTK kinase it was 9.1 nM.
For `C=CC(=O)N1CC2CC1(c1nc(-c3ccc(C(=O)Nc4ccccn4)cc3)c3c(N)nccn13)CO2` (stereo not shown) [Example 9], the IC50 with TMD8 cells was determined as 0.2 nM; in the assay on DOHH2 cells, 74.3 nM; in the assay on OCI-LY10 cells it was 0.13 nM; at BTK kinase, 2.8 nM.
On the same counts, the results for `CC#CC(=O)N1CC2CC1(c1nc(-c3ccc(C(=O)Nc4ccccn4)cc3)c3c(N)nccn13)CO2` (stereo not shown) [Example 10] are 6.3 nM, more than 1000 nM, 2.1 nM and 72 nM.
In the case of `CC#CC(=O)N1C2CCC1(c1nc(-c3ccc(C(=O)Nc4ccccn4)cc3)c3c(N)nccn13)COC2` (stereo not shown) [Example 12], the IC50 came out at 4.3 nM in the assay on TMD8 cells, 129 nM with DOHH2 cells, 7.4 nM with OCI-LY10 cells and 14 nM at BTK kinase.
In the case of `C=CC(=O)N1C2CN[C@@H](C2)C1c1nc(-c2ccc(C(=O)Nc3ccccn3)cc2)c2c(N)nccn12` (stereo partly shown) [Example 13], the half-maximal inhibitory concentration (IC50) in the assay on TMD8 cells amounted to 0.38 nM; with DOHH2 cells, 138 nM; in the assay on OCI-LY10 cells it was 0.67 nM; on BTK kinase, 3.3 nM.
As to `CC#CC(=O)N1C2CN[C@@H](C2)C1c1nc(-c2ccc(C(=O)Nc3ccccn3)cc2)c2c(N)nccn12` (stereo partly shown) [Example 14], the IC50 was 7.5 nM in the assay on TMD8 cells, more than 1000 nM in the assay on DOHH2 cells, 1.8 nM in the assay with OCI-LY10 cells and 12.5 nM at BTK kinase.
Consider `C=CC(=O)N1C2C[C@@H](C1c1nc(-c3ccc(C(=O)Nc4ccccn4)cc3)c3c(N)nccn13)N(C)C2` (stereo partly shown) [Example 15], for which the IC50 with TMD8 cells came out at 64.5 nM; with DOHH2 cells, 716 nM; in the assay on OCI-LY10 cells, 17.6 nM; at BTK kinase, 17.4 nM.
As for `C=CC(=O)N1C2C[C@@H](C1c1nc(-c3ccc(C(=O)Nc4ccccn4)cc3)c3c(N)nccn13)N(C(C)C)C2` (stereo partly shown) [Example 16], the 50% inhibitory concentration (IC50) in the assay with TMD8 cells was 1.6 nM; in the assay with DOHH2 cells, more than 1000 nM; in the assay on OCI-LY10 cells, 3.1 nM; on BTK kinase, 9.5 nM.
For `CC#CC(=O)N1C2C[C@@H](C1c1nc(-c3ccc(C(=O)Nc4ccccn4)cc3)c3c(N)nccn13)N(C(C)C)C2` (stereo partly shown) [Example 17], the IC50 was more than 1000 nM in the assay on DOHH2 cells and 48 nM on BTK kinase.
Take `CC#CC(=O)N1[C@@H]2CC[C@@H](C2)[C@H]1c1nc(-c2ccc(C(=O)Nc3ccccn3)cc2)c2c(N)nccn12` [Example 23, 4-(8-amino-3-((1R,3S,4S)-2-(but-2-ynoyl)-2-azabicyclo[2.2.1]heptan-3-yl)imidazo [1,5-a]pyrazin-1-yl)-N-(pyridin-2-yl)benzamide]: the IC50 was 1.1 nM in the assay with TMD8 cells, more than 1000 nM with DOHH2 cells, 2.4 nM with OCI-LY10 cells and 49 nM at BTK kinase.
`C=CC(=O)N1CCC2CC21c1nc(-c2ccc(C(=O)Nc3ccccn3)cc2)c2c(N)nccn12` (stereo not shown) [Example 32]: the results for the IC50 in the assay on DOHH2 cells and at BTK kinase were more than 1000 nM and 57 nM, respectively.
Take `C=CC(=O)N1CC2CCCC2C1c1nc(-c2ccc(C(=O)Nc3cc(C(F)(F)F)ccn3)cc2)c2c(N)nccn12` (stereo not shown) [Example 42]: the IC50 is 0.26 nM in the assay on TMD8 cells, 104 nM in the assay on DOHH2 cells, 0.33 nM in the assay with OCI-LY10 cells and 5.3 nM on BTK kinase.
On the same counts, the results for `CC#CC(=O)N1CC2CCCC2C1c1nc(-c2ccc(C(=O)Nc3cc(C(F)(F)F)ccn3)cc2)c2c(N)nccn12` (stereo not shown) [Example 43] are 2.3 nM, 217 nM, 0.42 nM and 4.4 nM.
In the case of `C=CC(=O)N1C[C@H]2[C@@H](C1c1nc(-c3ccc(C(=O)Nc4cc(C(F)(F)F)ccn4)cc3)c3c(N)nccn13)C2(C)C` (stereo partly shown) [Example 44], the IC50 with TMD8 cells stood at 7.8 nM; in the assay on DOHH2 cells it was 717 nM; in the assay with OCI-LY10 cells it was 1.3 nM; at BTK kinase, 34 nM.
With `C=CC(=O)N1C2CN[C@@H](C2)C1c1nc(-c2ccc(C(=O)Nc3cc(C)ccn3)cc2)c2c(N)nccn12` (stereo partly shown) [Example 66], the results for the 50% inhibitory concentration (IC50) in the assay on DOHH2 cells and at BTK kinase were more than 1000 nM and 34 nM, respectively.
On the same counts, the results for `CC#CC(=O)N1C2CN[C@@H](C2)C1c1nc(-c2ccc(C(=O)Nc3cc(C)ccn3)cc2)c2c(N)nccn12` (stereo partly shown) [Example 67] are more than 1000 nM and 69 nM.
On the same counts, the results for `C=CC(=O)N1C2CN[C@@H](C2)C1c1nc(-c2ccc(C(C)(O)c3ccccc3)cc2)c2c(N)nccn12` (stereo partly shown) [Example 86] are 917 nM and 29 nM.
On the same counts, the results for `CC#CC(=O)N1C2CN[C@@H](C2)C1c1nc(-c2ccc(C(C)(O)c3ccccc3)cc2)c2c(N)nccn12` (stereo partly shown) [Example 87] are 786 nM and 42 nM.
Turning to `C=CC(=O)N1CCC2CC21c1nc(-c2ccc(Oc3ccccc3)cc2)c2c(N)nccn12` (stereo not shown) [Example 102], at BTK kinase, the IC50 was 175 nM.
On to `CC#CC(=O)N1CCC2CC21c1nc(-c2ccc(Oc3ccccc3)cc2)c2c(N)nccn12` (stereo not shown) [Example 103], for which, at BTK kinase, the IC50 was 271 nM.
As for `CN(C/C=C/C(=O)N1CC2(CC2)C[C@H]1c1nc(-c2ccc(C(=O)Nc3ccccn3)cc2)c2c(N)nccn12)C1CC1` [Example 114, (S,E)-4-(8-amino-3-(5-(4-(cyclopropyl(methyl)amino)-2-butenoyl)-5-azaspiro[2.4]heptan-6-yl)imidazo[1,5-a]pyrazin-1-yl)-N-(pyridin-2-yl)benzamide], the IC50 on BTK kinase is 81 nM.
Still for that read-out and setting: to `CC(C)/C=C(/C#N)C(=O)N1CC2(CC2)C[C@H]1c1nc(-c2ccc(C(=O)Nc3ccccn3)cc2)c2c(N)nccn12` [Example 116, (S,Z)-4-(8-amino-3-(5-(2-cyano-4-methyl-2-pentenoyl)-5-azaspiro [2.4]heptan-6-yl)imidazo[1,5-a]pyrazin-1-yl)-N-(pyridin-2-yl)benzamide] belongs 276 nM.
Take `CC(C)/C=C(/C#N)C(=O)N1CC2CCCC2[C@H]1c1nc(-c2ccc(C(=O)Nc3ccccn3)cc2)c2c(N)nccn12` (stereo partly drawn) [Example 117, 4-(8-amino-3-((1S)-2-((Z)-2-cyano-4-methyl-2-pentenoyl)octahydrocyclopenta [c]pyrrol-1-yl)imidazo[1,5-a]pyrazin-1-yl)-N-(pyridin-2-yl)benzamide]: the IC50 on BTK kinase is 104 nM.
`CC#CC(=O)N1CC2CCC1(c1nc(-c3ccc(C(=O)Nc4ccccn4)cc3)c3c(N)nccn13)CC2` [Example 121, 4-(8-amino-3-(2-(but-2-ynoyl)-2-azabicyclo[2.2.2]octan-1-yl)imidazo[1,5-a]pyrazin-1-yl)-N-(pyridin-2-yl)benzamide]: the IC50 on BTK kinase stood at 43 nM.
With `C=CC(=O)N1CC2CCC1(c1nc(-c3ccc(C(=O)Nc4ccccn4)cc3)c3c(N)nccn13)C2` (stereo not shown) [Example 122, 4-(3-(2-acryloyl-2-azabicyclo[2.2.1]heptan-1-yl)-8-aminoimidazo[1,5-a]pyrazin-1-yl)-N-(pyridin-2-yl)benzamide], on BTK kinase, the IC50 stood at 49 nM.
As for `CC#CC(=O)N1CC2CCC1(c1nc(-c3ccc(C(=O)Nc4ccccn4)cc3)c3c(N)nccn13)C2` (stereo not shown) [Example 123, 4-(8-amino-3-(2-(but-2-ynoyl)-2-azabicyclo[2.2.1]heptan-1-yl)imidazo[1,5-a]pyrazin-1-yl)-N-(pyridin-2-yl)benzamide], the 50% inhibitory concentration (IC50) on BTK kinase worked out at 72 nM.

The record behind these values is US10793576B2, “Compound used as Bruton's tyrosine kinase inhibitor and preparation method and application thereof” (Chengdu Brilliant Pharmaceutical Co., LTD., priority 2017, dated 2020).
